In US7067532B2, “Substituted quinolines as antitumor agents” (AstraZeneca, priority 2000, dated 2006) one finds IC50 data, which are given here for one compound.

The subject of this assay is HT29 human colon tumour cells. Put plainly: Cell proliferation assays. In kind it is cell-based. The note with it: HT-29, 72 hours. As for the experimental part:
Cell Proliferation Assays Cells were seeded into multi-well plates at 20000–40000 cells/ml in growth medium containing 5% FCS and incubated overnight at 37° C. The compounds were prepared in fresh medium at an appropriate concentration and added to the wells containing the cells. These were then incubated for a further 72 hours. Cells were then either removed from the wells by incubating with trypsin/EDTA and counted using a Coulter counter, or treated with XTT/PMS in PBSA and optical densities read at 450 nm.

One may read the IC50 as the point on the concentration scale where inhibition reaches its midpoint. Higher therefore signals weaker potency in that assay. For `CNC(=O)COc1ccccc1Oc1ccc(Nc2c(C#N)cnc3cc(NCCCN4CCOCC4)c(OC)cc23)cc1` [Compound 11], half-maximal inhibition (IC50) was put at 1300 nM.
